Data as given in paper PMC11966994 (Emerging Microbes & Infections, 2025).

What was measured:
[1] = rat, in vivo, 10 mg/kg; cited from earlier work
in vitro [2] = conditions: African green monkey
in vitro [3] = conditions: human
influenza virus = assay type: cell-based
IFNα/β mRNA = assay type: cell-based

## O=C(O[C@@H]1[C@@H](O)[C@H](Oc2cc(O)c(C(=O)CCc3ccccc3)c(O)c2)O[C@@H]2COC(=O)c3cc(O)c(O)c(O)c3-c3c(cc(O)c(O)c3O)C(=O)O[C@@H]12)c1cc(O)c(O)c(O)c1 [Compound 46, Thonningianin A]
[1]
  t₁/₂: 3.69 h
In vitro [2]
  CC50: 10.6 µM
In vitro [3]
  CC50: 20.2 µM
Influenza virus
  effect on influenza virus replication: did not significantly affect
IFNα/β mRNA
  effect on IFNα/β mRNA expression levels: did not significantly affect
